Experimental data as given in patent US6911443B2 (Bayer Aktiengesellschaft, priority 2000, dated 2005).
Where two headings read alike, the source gives them in different places.

Molecular target: T1, human Syk (GST-Syk) (Homo sapiens, UniProt P43405)
T1 construct: A cDNA fragment encoding human Syk openreading frame was cloned; made in house; host or cells: Sf21 insect cells (baculovirus, transfer vector pAcG2T)
Experiment: Syk tyrosine kinase inhibitory assay
Assay type: biochemical
Procedure, shortened: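 GST-tagged human Syk from baculovirus/Sf21, 0.65 nM final, with 3 μM biotinylated 30-residue activation-loop peptide and 30 μM ATP in Tris pH 8.0/MgCl2 buffer, 0.25% DMSO; 1 h at room temperature. Phosphopeptide captured on streptavidin, detected by europium-labelled anti-phosphotyrosine 4G10 time-resolved fluorescence.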

[1] = in vitro, compounds as yielded by solid phase synthesis, purity about 40 to 90%, read-out: Activity grade (IC50 class)

| SMILES | IC50 [1] | further results |
| --- | --- | --- |
| COc1ccc(-c2cc3nccn3c(Nc3cccc(C(=O)O)c3C)n2)cc1OC [Example 11-51] | 500 to 2000 nM |  |
| CCSc1nc(-c2ccc(OC)c(S(=O)(=O)N3CCN(CCO)CC3)c2)cc2nccn12 [Example 2-3] | < 500 nM |  |
| CCSc1nc(-c2ccc(OCCCN3CCCCC3)c(OC)c2)cc2nccn12 [Example 5-7] | < 500 nM |  |
| CCSc1nc(-c2ccc(NCCCN3CCOCC3)c(OC)c2)cc2nccn12 [Example 17-12] |  | IC50 (Table 16, read-out: Activity grade): < 500 nM |
| COc1ccc(-c2cc3nccn3c(NCCN(C)C)n2)cc1OC [Example 9-3] | 2000 to 10000 nM |  |
| CCCCCCSc1nc(-c2ccc(OC)c(OC)c2)cc2nccn12 [Example 14-18] |  | Activity grade (Table 13): C-D |
| COc1ccc(-c2cc3nccn3c(Sc3cccc(Cl)c3Cl)n2)cc1OC [Example 13-5] | 2000 to 10000 nM |  |
